Several values for one entry are separate records, joined by “and”; a condition that tells them apart may be missing. Equal entries are not always repeated. Where two headings read alike, the source gives them in different places. Numbered stars: 1 amine (or outer) side, 2 acyl side, 3 side chain; on linkers, the order of the positions; unused ones are H or OH. Bridge positions count the residues as written; N and C are the ends. Peptide text beside a SMILES is read from it. I, II: the chains in the order shown. Diglycolyl = O=C(COCC(=O)[*:2])[*:1]
What was measured:
human TRAIL R2 = biological target: T1, human TRAIL R2 (Homo sapiens, UniProt O14763); assay: AlphaQuest TRAIL R2 receptor binding competition assay (AlphaScreen, biotinylated TRAIL ligand vs TRAIL R2-Fc); conditions: competition with biotinylated TRAIL ligand
T1 construct: purchased R&D Systems, Minneapolis, Minn
Source text: Laser excitation (680 nm) of a photosensitizer in the donor bead generates singlet state oxygen molecules, which react with a chemiluminescer in the acceptor bead to generate a detectable light signal (520-620 nm). Because the singlet O2 molecules have an extremely short half-life (i.e., t ½), a signal is generated only when the donor and acceptor beads are brought into close proximity, by TRAIL binding to the R2 receptor. The presence of unlabeled test peptide that competes with TRAIL for binding to the R2 receptor will prevent this binding, resulting in a measurable decrease in light emission.
Recombinant human TRAIL R2-Fc fusion protein (R&D Systems, Minneapolis, Minn.) is diluted in AlphaQuest® buffer to a concentration of 600 pM, pre-mixed with 1.9 μL Protein A-coated acceptor beads and 1.9 μL streptavidin-coated donor beads (Perkin-Elmer®, Waltham, Mass.), then 2 μL is added to each well of the assay plate. […] The plates are sealed with adhesive sealing film and covered with aluminum foil, centrifuged at 600 rpm for 30 seconds and incubated overnight in the dark. […] The raw data are analyzed using GraphPad Prism® software (La Jolla, Calif.) to calculate IC50 values from a 4-parameter logistic equation.

HCT-116 cells = format: cell-based
Procedure: The apoptotic activity of test peptides is measured using an HCT-116 proliferation assay. The HCT-116 assay is used to measure the activity of TRAIL R2 agonist peptides using the colon carcinoma cell line HCT-116 (ATCC, Manassas, Va.).
In more detail, a peptide homotrimer based on the peptide monomer sequence of SEQ ID NO: 19 (See, FIG. 8B) is tested for functional activity using the HCT-116 proliferation assay. HCT-116 cells are incubated for one to two days in the presence of serially diluted peptide dimers or peptide trimers. […]
Cell viability is measured using an MTT colorimetric viability assay, a colorimetric assay that analyzes the number of viable cells by measuring the ability of mitochondrial dehydrogenase enzyme in the viable cells to cleave tetrazolium salts added to the culture medium [See, Mosmann (1983) J. Immunol. […] Using this assay, cell proliferation is assessed after 24-48 hours by adding 10 μL of MTT stock solution (ATCC, Manassas, Va.) to the wells. […] After incubation overnight in a 37° C., 5% CO2 incubator, the plates are quantified by reading the optical density at 595 nm (OD595) in a SpectraMax M5 microplate reader (Molecular Devices, Sunnyvale, Calif.). The data are analyzed using GraphPad® Prism software (La Jolla, Calif.) to calculate IC50 values from a 4-parameter logistic equation.

Jurkat cells = format: cell-based
Procedure: The apoptotic activity of test peptides is measured using a Jurkat proliferation assay.
Jurkat cells are obtained from the American Type Culture Collection (ATCC, Manassas, Va.) and are maintained in RPMI-1640 medium supplemented with 10% FBS, 100 U/mL penicillin, and 100 […] (Growth Medium). […] Cells are resuspended at a density of 1×10^6 cells/mL in Growth Medium, and 50 μl cells is added to each well of the assay plates. The plates are incubated in a 37° C., 5% CO2 incubator for 24-48 hours. Proliferation is assessed by adding 10 μL of MTT stock solution (ATCC, Manassas, Va.) to the wells. The plates are incubated in a 37° C., 5% CO2 incubator for another 2-4 hours, followed by the addition of 100 μL of 20% SDS with 0.01 N HCl. After incubation overnight in a 37° C., 5% CO2 incubator, the plates are quantified by reading the optical density at a wavelength of 595 nm (OD595) in a SpectraMax® M5 microplate reader (Molecular Devices, Sunnyvale, Calif.). The data are analyzed using GraphPad Prism® software (La Jolla, Calif.) to calculate IC50 values from a 4-parameter logistic equation.

[1] = Apoptotic (functional) activity of peptides of FIG. 5, assay not named; format: cell-based; conditions: FIG. 5, role of the C-terminal leucine

Row | SMILES | IC50 (human TRAIL R2; single values and ranges over assays, read-out: binding activity (IC50)) | EC50 (HCT-116 cells) [nM] | EC50 (Jurkat cells) [nM] | apoptotic activity (observed or not) [1] | IC50 (human TRAIL R2; single exemplary values and ranges over assays, read-out: binding affinity / binding activity (IC50))
1 | CC[C@H](C)[C@@H]1NC(=O)[C@H](CCCNC(=N)N)NC(=O)[C@H](CC(N)=O)NC(=O)[C@H](CC(=O)O)NC(=O)[C@H](CC(C)C)NC(=O)[C@@H](NC(=O)[C@H](CC(=O)O)NC(=O)[C@H](Cc2c[nH]c3ccccc23)NC(C)=O)CSSC[C@@H](C(=O)N[C@H](C(=O)N[C@@H](CCCCNC(=O)COCC(=O)NCCCC[C@H](NC(=O)[C@@H](NC(=O)[C@@H]2CSSC[C@H](NC(=O)[C@H](CC(=O)O)NC(=O)[C@H](Cc3c[nH]c4ccccc34)NC(C)=O)C(=O)N[C@@H](CC(C)C)C(=O)N[C@@H](CC(=O)O)C(=O)N[C@@H](CC(N)=O)C(=O)N[C@@H](CCCNC(=N)N)C(=O)N[C@@H]([C@@H](C)CC)C(=O)NCC(=O)N[C@@H](CCCNC(=N)N)C(=O)N[C@@H](CCCNC(=N)N)C(=O)N[C@@H](CCC(N)=O)C(=O)N2)C(C)C)C(=O)N[C@@H](CC(C)C)C(N)=O)C(=O)N[C@@H](CC(C)C)C(N)=O)C(C)C)NC(=O)[C@H](CCC(N)=O)NC(=O)[C@H](CCCNC(=N)N)NC(=O)[C@H](CCCNC(=N)N)NC(=O)CNC1=O [SEQ ID NO: 19 homodimer] (I: Ac-WDCLDNRIGRRQCVKL-NH2 / II: Ac-WDCLDNRIGRRQCVKL-NH2; disulfide I:3-I:13, II:3-II:13; linker I:15-II:15 via Diglycolyl) | ~7000 nM and 1000 to 56000 nM | ~1620 | 945 to 7000 | – | –
2 | CC[C@H](C)[C@@H]1NC(=O)[C@H](CCCNC(=N)N)NC(=O)[C@H](CC(N)=O)NC(=O)[C@H](CC(=O)O)NC(=O)[C@H](CC(C)C)NC(=O)[C@@H](NC(=O)[C@H](CC(=O)O)NC(=O)[C@H](Cc2c[nH]c3ccccc23)NC(C)=O)CSSC[C@@H](C(=O)N[C@H](C(=O)N[C@@H](CCCCN)C(N)=O)C(C)C)NC(=O)[C@H](CCC(N)=O)NC(=O)[C@H](CCCNC(=N)N)NC(=O)[C@H](CCCNC(=N)N)NC(=O)CNC1=O [SEQ ID NO: 28 monomer] (Ac-WDCLDNRIGRRQCVK-NH2; disulfide 3-13) | – | – | – | no apoptotic activity is observed | –
3 | CC[C@H](C)[C@@H]1NC(=O)[C@H](CCCNC(=N)N)NC(=O)[C@H](CC(N)=O)NC(=O)[C@H](CC(=O)O)NC(=O)[C@H](CC(C)C)NC(=O)[C@@H](NC(=O)[C@H](CC(=O)O)NC(=O)[C@H](Cc2c[nH]c3ccccc23)NC(C)=O)CSSC[C@@H](C(=O)N[C@H](C(=O)N[C@@H](CCCCN)C(=O)N[C@@H](CC(C)C)C(N)=O)C(C)C)NC(=O)[C@H](CCC(N)=O)NC(=O)[C@H](CCCNC(=N)N)NC(=O)[C@H](CCCNC(=N)N)NC(=O)CNC1=O [SEQ ID NO: 19 monomer] (Ac-WDCLDNRIGRRQCVKL-NH2; disulfide 3-13) | – | – | – | exhibits apoptotic activity | ~49 nM and 15 to 104 nM and 1 to 56 nM
